Data on 11 molecules can be found in patent US11986471B2, “Compounds and methods of use” (Tango Therapeutics, Inc., priority 2018, dated 2024).

Structures are written as SMILES. A value given as a limit tells only on which side of the number the result lay.

Test [1] addresses T1, PRMT5 (Homo sapiens, UniProt O14744).
T1 construct: purchased Viva (custom protein)
Kind of test: PRMT5 IC50 assay in the presence of MTA as cofactor. Format: biochemical. The settings on record: for IC50: PRMT5, MTA as cofactor; for SAM/MTA Ratio: ratio between the Ki in the presence of SAM and the Ki in the presence of MTA. In outline:
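For the SAM-containing format, dividing IC50 by 1.5 yields Ki; for the MTA-containing format the divisor is 13.5. A third format without cofactor gives IC50 alone.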

Test [2] addresses T1, PRMT5. Description: PRMT5 IC50 assay in the presence of SAM as cofactor. Type of test: biochemical. In outline:
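Cofactor-free, SAM and MTA formats; IC50 μM; Ki = IC50/1.5 for SAM, IC50/13.5 for MTA.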

Test [3] deals with T1, PRMT5. Description: PRMT5 IC50 assay with no cofactor. Type of test: biochemical. In a few lines:
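Three cofactor conditions tested for PRMT5 inhibition: none, MTA and SAM, each giving an IC50. For conversion to Ki, the MTA-condition IC50 is divided by 13.5 and the SAM-condition IC50 by 1.5, and the two Ki values are expressed as a SAM/MTA ratio.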

Test [4] concerns HAP1 MTAP-deleted. Description: SDMA in-cell western assay, HAP1 MTAP-deleted cell line. Type of test: cell-based. The settings on record: for IC50: Homo sapiens, HAP1 MTAP-deleted cell line; for MTAP Intact/Deleted Ratio: IC50 ratio HAP1 MTAP-intact / HAP1 MTAP-deleted. In outline: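 These are IC50 values from an in-cell western measuring SDMA. The HAP1 cells used carry no MTAP, in contrast to the isogenic partner line with endogenous MTAP expression.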

Test [5] relates to HAP1 MTAP-intact. Kind of test: SDMA in-cell western assay, HAP1 MTAP-intact cell line. Conditions: Homo sapiens. Type of test: cell-based. In a few lines: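 Potency reflects cellular SDMA reduction, detected by in-cell western, in HAP1 cells with or without MTAP (endogenous expression versus null).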

T1 sequence (O14744 whole entry): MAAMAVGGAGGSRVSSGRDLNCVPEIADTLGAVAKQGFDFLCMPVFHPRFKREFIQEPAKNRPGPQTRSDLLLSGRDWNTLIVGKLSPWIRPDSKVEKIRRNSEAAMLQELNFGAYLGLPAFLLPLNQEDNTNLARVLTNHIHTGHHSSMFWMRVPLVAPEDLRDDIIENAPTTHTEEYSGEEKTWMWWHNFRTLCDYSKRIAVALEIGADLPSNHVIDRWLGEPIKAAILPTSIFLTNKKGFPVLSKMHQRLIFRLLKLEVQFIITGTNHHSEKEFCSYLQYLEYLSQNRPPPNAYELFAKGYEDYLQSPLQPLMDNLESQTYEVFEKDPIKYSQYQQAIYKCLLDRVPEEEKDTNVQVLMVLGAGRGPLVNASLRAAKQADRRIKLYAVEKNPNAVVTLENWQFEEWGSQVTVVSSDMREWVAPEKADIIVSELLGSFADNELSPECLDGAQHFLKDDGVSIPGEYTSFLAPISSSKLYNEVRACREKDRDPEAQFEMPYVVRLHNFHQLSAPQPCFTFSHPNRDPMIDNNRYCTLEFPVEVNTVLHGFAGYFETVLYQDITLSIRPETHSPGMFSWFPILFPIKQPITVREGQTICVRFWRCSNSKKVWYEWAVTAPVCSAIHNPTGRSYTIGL
T1 sequence (Q9BQA1 whole entry partner): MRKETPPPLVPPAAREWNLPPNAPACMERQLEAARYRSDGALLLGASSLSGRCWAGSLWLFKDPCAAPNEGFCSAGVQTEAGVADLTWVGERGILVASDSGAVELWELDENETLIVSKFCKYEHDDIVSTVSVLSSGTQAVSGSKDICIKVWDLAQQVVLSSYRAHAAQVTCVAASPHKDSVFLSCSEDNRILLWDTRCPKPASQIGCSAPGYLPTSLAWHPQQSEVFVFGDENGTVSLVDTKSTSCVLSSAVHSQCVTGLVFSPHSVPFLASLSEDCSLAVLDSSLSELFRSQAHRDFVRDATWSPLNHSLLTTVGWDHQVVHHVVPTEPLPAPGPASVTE

For orientation: IC50 means the concentration that gives 50% inhibition. `CC(C)CC(=O)N1CC(Nc2cc(C(=O)NC[C@H](O)CN3CCc4cc(OCc5cnco5)ccc4C3)ccn2)C1` [Compound 474, N-[(2S)-2-hydroxy-3-[6-(oxazol-5-ylmethoxy)-3,4-dihydro-1H-isoquinolin-2-yl]propyl]-2-[[1-(3-methylbutanoyl)azetidin-3-yl]amino]pyridine-4-carboxamide]: the 50% inhibitory concentration (IC50) in test [1] is 0.05 to 0.5 µM; in test [2], 0.05 to 0.5 µM; in test [3] it was at least 5 µM; in test [4] it was 1 to 10 µM; in test [5] it was 1 to 10 µM. Besides, the “SAM/MTA Ratio” value in test [1] was “A (a Ki ratio greater than or equal to 10 fold between the Ki in the presence of SAM and the Ki in the presence of MTA)”. In test [4], the “MTAP Intact/Deleted Ratio” value was “B* (an IC50 ratio greater than or equal to 3 fold but lower than 10 fold between the IC50 in the HAP1 MTAP-intact cell line and the HAP1 MTAP-deleted cell line)”.
Consider `Cc1ncoc1COc1ccc2c(c1)CCN(C[C@@H](O)CNC(=O)c1ccc(OC3CCOCC3)cc1)C2` [Compound 475, N-[(2S)-2-hydroxy-3-{6-[(4-methyl-1,3-oxazol-5-yl)methoxy]-1,2,3,4-tetrahydroisoquinolin-2-yl}propyl]-4-(oxan-4-yloxy)benzamide], for which the IC50 is 0.05 to 0.5 µM in test [1]; 0.5 to 5 µM in test [2]; at least 5 µM in test [3]; 1 to 10 µM in test [4]; 1 to 10 µM in test [5]. In test [1], the “SAM/MTA Ratio” value was “A (a Ki ratio greater than or equal to 10 fold between the Ki in the presence of SAM and the Ki in the presence of MTA)”. For the same molecule, in test [4], the “MTAP Intact/Deleted Ratio” value was “C* (an IC50 ratio of less than 3 fold between the IC50 in the HAP1 MTAP-intact cell line and the HAP1 MTAP-deleted cell line)”.
For the molecule `Cc1c(OCc2cnco2)ccc2c1CCN(C[C@@H](O)CNC(=O)c1ccnc(NC3CCC3C3CCC3)c1)C2` (stereo partly drawn) [Compound 476, 2-([1,1′-bi(cyclobutan)]-2-ylamino)-N—((S)-2-hydroxy-3-(5-methyl-6-(oxazol-5-ylmethoxy)-3,4-dihydroisoquinolin-2(1H)-yl)propyl)isonicotinamide], the IC50 was 0.05 to 0.5 µM in test [1]; 0.5 to 5 µM in test [2]; at least 5 µM in test [3]; at least 10 µM in test [4]; at least 10 µM in test [5]. The “SAM/MTA Ratio” value in test [1] is “A (a Ki ratio greater than or equal to 10 fold between the Ki in the presence of SAM and the Ki in the presence of MTA)”. The “MTAP Intact/Deleted Ratio” value in test [4] is “C* (an IC50 ratio of less than 3 fold between the IC50 in the HAP1 MTAP-intact cell line and the HAP1 MTAP-deleted cell line)”.
On to `CCN(C)c1nc(NC2COC2)cc(C(=O)NC[C@H](O)CN2CCc3c(ccc(OCc4ocnc4C)c3C)C2)n1` [Compound 477], for which the IC50 in test [1] was 0.05 to 0.5 µM; in test [2], 0.05 to 0.5 µM; in test [3], at least 5 µM; in test [4], 1 to 10 µM; in test [5], at least 10 µM. In test [1], the “SAM/MTA Ratio” value was “A (a Ki ratio greater than or equal to 10 fold between the Ki in the presence of SAM and the Ki in the presence of MTA)”. In test [4], the “MTAP Intact/Deleted Ratio” value is “B* (an IC50 ratio greater than or equal to 3 fold but lower than 10 fold between the IC50 in the HAP1 MTAP-intact cell line and the HAP1 MTAP-deleted cell line)”.
`CCN(C)c1cc(C(=O)NC[C@H](O)CN2CCc3c(ccc(OCc4ocnc4C)c3C)C2)cc(NC2CCC2)n1` [Compound 478, 2-(cyclobutylamino)-6-[ethyl(methyl)amino]-N-[(2S)-2-hydroxy-3-{5-methyl-6-[(4-methyl-1,3-oxazol-5-yl)methoxy]-1,2,3,4-tetrahydroisoquinolin-2-yl}propyl]pyridine-4-carboxamide]: the half-inhibitory concentration (IC50) in test [1] was 0.05 to 0.5 µM; in test [2], 0.5 to 5 µM; in test [3], at least 5 µM; in test [4], at least 10 µM; in test [5], at least 10 µM. In addition, the “SAM/MTA Ratio” value in test [1] is “A (a Ki ratio greater than or equal to 10 fold between the Ki in the presence of SAM and the Ki in the presence of MTA)”. The “MTAP Intact/Deleted Ratio” value in test [4] is “C* (an IC50 ratio of less than 3 fold between the IC50 in the HAP1 MTAP-intact cell line and the HAP1 MTAP-deleted cell line)”.
On to `CC(C)C(=O)N1CC(Nc2cc(C(=O)NC[C@H](O)CN3CCc4cc(OCc5cnco5)ccc4C3)ccn2)C1` [Compound 479, N-[(2S)-2-hydroxy-3-[6-(oxazol-5-ylmethoxy)-3,4-dihydro-1H-isoquinolin-2-yl]propyl]-2-[[1-(2-methylpropanoyl)azetidin-3-yl]amino]pyridine-4-carboxamide], for which the IC50 in test [1] was 0.05 to 0.5 µM; in test [2], 0.5 to 5 µM; in test [3], at least 5 µM; in test [4], 1 to 10 µM; in test [5], 1 to 10 µM. In addition, in test [1], the “SAM/MTA Ratio” value is “A (a Ki ratio greater than or equal to 10 fold between the Ki in the presence of SAM and the Ki in the presence of MTA)”. Besides, the “MTAP Intact/Deleted Ratio” value in test [4] is “C* (an IC50 ratio of less than 3 fold between the IC50 in the HAP1 MTAP-intact cell line and the HAP1 MTAP-deleted cell line)”.
For the molecule `CCCN(C)c1cc(C(=O)NC[C@H](O)CN2CCc3c(ccc(OCc4ocnc4C)c3C)C2)cc(NC2CCC2)n1` [Compound 480, 2-(cyclobutylamino)-N-[(2S)-2-hydroxy-3-{5-methyl-6-[(4-methyl-1,3-oxazol-5-yl)methoxy]-1,2,3,4-tetrahydroisoquinolin-2-yl}propyl]-6-[methyl(propyl)amino]pyridine-4-carboxamide], the IC50 in test [1] was 0.05 to 0.5 µM; in test [2], 0.05 to 0.5 µM; in test [3] it was at least 5 µM; in test [4], at least 10 µM; in test [5] it was at least 10 µM. Moreover, in test [1], the “SAM/MTA Ratio” value is “A (a Ki ratio greater than or equal to 10 fold between the Ki in the presence of SAM and the Ki in the presence of MTA)”. The “MTAP Intact/Deleted Ratio” value in test [4] is “C* (an IC50 ratio of less than 3 fold between the IC50 in the HAP1 MTAP-intact cell line and the HAP1 MTAP-deleted cell line)”.
As for `CC(C)C(=O)N1CCN(c2cc(C(=O)NC[C@H](O)CN3CCc4cc(OCc5cnco5)ccc4C3)cc(NC3CCC3)n2)CC1` [Compound 481, (S)-2-(cyclobutylamino)-N-(2-hydroxy-3-(6-(oxazol-5-ylmethoxy)-3,4-dihydroisoquinolin-2(1H)-yl)propyl)-6-(4-isobutyrylpiperazin-1-yl)isonicotinamide], the IC50 in test [1] is 0.05 to 0.5 µM; in test [2], 0.05 to 0.5 µM; in test [3] it was 0.5 to 5 µM; in test [4], under 1 µM; in test [5] it was under 1 µM. Besides, the “SAM/MTA Ratio” value in test [1] is “A (a Ki ratio greater than or equal to 10 fold between the Ki in the presence of SAM and the Ki in the presence of MTA)”. Further, the “MTAP Intact/Deleted Ratio” value in test [4] is “C* (an IC50 ratio of less than 3 fold between the IC50 in the HAP1 MTAP-intact cell line and the HAP1 MTAP-deleted cell line)”.
With `O=C(NC[C@H](O)CN1CCc2c(ccc(OCc3cnco3)c2Cl)C1)c1ccc(OC2CCOCC2)cc1` [Compound 482, (S)—N-(3-(5-chloro-6-(oxazol-5-ylmethoxy)-3,4-dihydroisoquinolin-2(1H)-yl)-2-hydroxypropyl)-4-((tetrahydro-2H-pyran-4-yl)oxy)benzamide], the half-maximal inhibitory concentration (IC50) was 0.5 to 5 µM in test [1]; 0.5 to 5 µM in test [2]; at least 5 µM in test [3]; at least 10 µM in test [4]; at least 10 µM in test [5]. The “SAM/MTA Ratio” value in test [1] is “A (a Ki ratio greater than or equal to 10 fold between the Ki in the presence of SAM and the Ki in the presence of MTA)”. For the same molecule, the “MTAP Intact/Deleted Ratio” value in test [4] is “C* (an IC50 ratio of less than 3 fold between the IC50 in the HAP1 MTAP-intact cell line and the HAP1 MTAP-deleted cell line)”.
As to `O=C(NC[C@H](O)CN1CCc2c(ccc(OCc3cnco3)c2Cl)C1)c1ccnc(N[C@H]2CC[C@H](C(F)(F)F)CC2)c1` [Compound 483, N—((S)-3-(5-chloro-6-(oxazol-5-ylmethoxy)-3N-dihydroisoquinolin-2(1H)-yl)-2-hydroxypropyl)-2-(((1RNS)-4-(trifluoromethyl)cyclohexy)amino)isonicotinamide], the half-inhibitory concentration (IC50) was 0.05 to 0.5 µM in test [1]; 0.5 to 5 µM in test [2]; at least 5 µM in test [3]; 1 to 10 µM in test [4]; at least 10 µM in test [5]. Further, in test [1], the “SAM/MTA Ratio” value was “A (a Ki ratio greater than or equal to 10 fold between the Ki in the presence of SAM and the Ki in the presence of MTA)”. The “MTAP Intact/Deleted Ratio” value in test [4] is “C* (an IC50 ratio of less than 3 fold between the IC50 in the HAP1 MTAP-intact cell line and the HAP1 MTAP-deleted cell line)”.
With `Cc1c(OCc2cnco2)ccc2c1CCN(C[C@@H](O)CNC(=O)c1ccnc(NC3CCN(C(=O)C4CC4)CC3)c1)C2` [Compound 484, (S)-2-((1-(cyclopropanecarbonyl)piperidin-4-yl)amino)-N-(2-hydroxy-3-(5-methyl-6-(oxazol-5-ylmethoxy)-3N-dihydroisoquinolin-2(1H)-yl)propyl)isonicotinamide], the concentration for half-maximal inhibition (IC50) in test [1] is 0.05 to 0.5 µM; in test [2] it was 0.05 to 0.5 µM; in test [3], 0.5 to 5 µM; in test [4], 1 to 10 µM; in test [5], at least 10 µM. For the same molecule, the “SAM/MTA Ratio” value in test [1] is “A (a Ki ratio greater than or equal to 10 fold between the Ki in the presence of SAM and the Ki in the presence of MTA)”. Moreover, in test [4], the “MTAP Intact/Deleted Ratio” value was “B* (an IC50 ratio greater than or equal to 3 fold but lower than 10 fold between the IC50 in the HAP1 MTAP-intact cell line and the HAP1 MTAP-deleted cell line)”.
